Data taken from patent EP4671240A1, “SALT CONTAINING AROMATIC RING DERIVATIVE ANTAGONIST, PREPARATION METHOD THEREFOR, AND APPLICATION THEREOF” (Jiangsu Hansoh Pharmaceutical Group Co., Ltd., priority 2023, dated 2024).

Assay: Rat pharmacokinetic evaluation assay (oral)
Assay type: in vivo
Conditions: male, SD rats, p.o. 5 mg/kg, plasma; for MRT inf: read-out: MRT 0-∞
Method: 6. Experimental conclusion: It can be seen from the data in the table that the example compounds shown in the present invention show good antagonistic effects in the experiment of the effect on calcium current in cells stably expressing ETA receptors. 2. Rat pharmacokinetic evaluation assay 1. Study objective: SD rats were used as test animals to study the pharmacokinetic behaviour of the compounds of the present invention in rat (plasma) after oral administration at a dose of 5 mg/kg. 2. Experimental scheme: • 2.1 Experimental drugs: The example compounds of the present invention, made in house. • 2.2 Experimental animals: 3 SD rats/group, male, from Shanghai Jiesijie Experimental Animal Co., Ltd., animal production license number (SCXK (Shanghai) 2013-0006 N0.311620400001794). 2.3 Preparation formulation: 0.5% CMC-Na (1% Tween80) was dissolved by ultrasonication, and formulated into a clear solution or homogeneous suspension. 2.4 Administration: • p.o. respectively after the rats were fasted overnight; • the p.o. dose was 5 mg/kg and the administration volume was 10 mL/kg. 2.5 Sample collection: After oral administration of rats, 0.2 mL of blood was collected from the jugular vein at 0.25 h, 0.5 h, 1.0 h, 2.0 h, and 4.0 h, placed in an EDTA-2K test tube, and centrifuged at 6000 rpm for 6 min at 4°C to separate plasma which was stored at - 80°C; the animals were fed 4 h after administration. 2.6 Sample treatment: • 1) Acetonitrile (160 µL) was added to plasma sample (40 µL) for precipitation, and the mixture was centrifuged at 3500 × g for 5-20 min. • 2) The treated supernatant solution was taken and subjected to LC/MS/MS to analyse the concentrations of the test compound. LC/MS/MS analysis instrument: AB Sciex API 4000 Qtrap. 2.7 Liquid phase analysis: • Liquid phase conditions: Shimadzu LC-20AD pump • Chromatographic column: Agilent ZORBAX XDB-C18 (50×2.1 mm, 3.5 µm), mobile phase: liquid A: 0.1% formic acid in water, liquid B: acetonitrile • Flow rate: 0.4 mL/min • Elution time: 0-4.0 min, the eluent was as follows:
The main pharmacokinetic parameters were calculated using WinNonlin 6.1. The results of pharmacokinetic experiments in rats are as shown in Table 13 below: Table 13: Pharmacokinetic parameters of the compounds of the present invention in rats after oral administration

Compound | AUC(0-inf) | Cmax | Tmax | MRT inf
CCCCC1=NC2(CCCC2)C(=O)N1Cc1ccc(-c2ccccc2S(=O)(=O)Nc2noc(C)c2Cl)c(COCC)c1 [Example 8, 2-[4-[(2-Butyl-4-oxo-1,3-diazaspiro[4.4]non-1-en-3-yl)methyl]-2-(ethoxymethyl)phenyl]-N-(4-chloro-5-methyl-isoxazol-3-yl)benzenesulfonamide] | 16000 ng·h/mL | 2140 ng/mL | 0.5 h | 8.6 h
[2H]C([2H])(c1ccc(-c2ccccc2S(=O)(=O)Nc2noc(C)c2Cl)c(COCC)c1)N1C(=O)C2(CCCC2)N=C1CCCC [Example 2, 4'-((2-Butyl-4-oxo-1,3-diazaspiro[4.4]non-1-en-3-yl)methyl-d2)-N-(4-chloro-5-methylisoxazol-3-yl)-2'-(ethoxymethyl)-[1,1'-biphenyl]-2-sulfonamide] | 10200 ng·h/mL | 1690 ng/mL | 0.5 h | 8.4 h
